For the experiment, the target named is T1, GST-RIPK1 (recombinant GST-RIPK1 kinase domain (residues 1-327)) (Homo sapiens, UniProt Q13546).
T1 construct: recombinant GST-RIPK1 kinase domain (residues 1-327) enzyme produced from baculovirus-transfected Sf21 cells; host or cells: baculovirus-transfected Sf21 insect cells
T1 sequence (Q13546 1-327): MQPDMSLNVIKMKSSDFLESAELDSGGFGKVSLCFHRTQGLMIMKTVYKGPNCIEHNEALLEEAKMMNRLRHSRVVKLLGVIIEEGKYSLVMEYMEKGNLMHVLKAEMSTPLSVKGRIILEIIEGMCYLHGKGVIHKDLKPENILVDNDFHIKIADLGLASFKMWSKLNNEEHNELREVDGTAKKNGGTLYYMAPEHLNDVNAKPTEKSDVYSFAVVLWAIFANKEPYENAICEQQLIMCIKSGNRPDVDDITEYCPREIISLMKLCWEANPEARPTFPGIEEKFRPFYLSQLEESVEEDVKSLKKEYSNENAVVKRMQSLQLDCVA
Briefly: RIPK1-ADP-Glo Enzymatic Assay. The class given is biochemical. Particulars: ten-point titration, top compound concentration of 100000 nM; 25 nM GST-RIPK1, 300 μM ATP, 3 μM dephosphorylated-MBP; 30 min pre-incubation, 150 min reaction. The method, boiled down:
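ADP-Glo luminescence quantifies ADP formed over 150 minutes by 25 nM Sf21-produced GST-RIPK1 (1-327) using 300 μM ATP and 3 μM dephosphorylated MBP, following 30-minute compound preincubation at 1% DMSO. Ten-point 1:3 series from 100000 nM gave EC50 via four-parameter sigmoidal regression.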
On the technique in general: ADP-Glo turns the ADP formed in a reaction into a luminescent signal.

The values below come from patent US20250154173A1 (Merck Sharp & Dohme LLC, priority 2023, published 2025).

Each structure is given as a SMILES string.

A word on the EC50: it is the concentration giving half of the maximal effect. As for `Cc1cn(-c2cc(OC3CC4(C3)O[C@@H]3CC[C@@H](c5cc(F)cc(F)c5)N3C4=O)ncn2)cn1` (single isomer, unassigned) [Example 9.9], the EC50 amounted to 0.475 µM.
Turning to `O=C1N2[C@@H](CC[C@H]2c2ccccc2)OC12CC(Oc1ccncc1F)C2` (stereo partly drawn) [Example 8.7, (5′S,7a′R)-3-[(3-fluoropyridin-4-yl)oxy]-5′-phenyltetrahydro-3′H-spiro[cyclobutane-1,2′-pyrrolo[2,1-b][1,3]oxazol]-3′-one], the EC50 was determined as 0.074 µM.
Next, `CS(=O)(=O)c1ccc(COC2CC3(C2)OC2CC[C@@H](c4cnccn4)N2C3=O)cc1` (stereo partly drawn) [Example 18.67, (5′S)-3-{[4-(methylsulfonyl)phenyl]methoxy}-5′-(pyrazin-2-yl)tetrahydro-3′H-spiro[cyclobutane-1,2′-pyrrolo[2,1-b][1,3]oxazol]-3′-one]: 0.088 µM; `O=C1N2C(CC[C@H]2c2cnccn2)OC12CC(OCc1ccc3cnccc3c1)C2` (stereo partly drawn) [Example 18.37, (5′S)-3-[(isoquinolin-6-yl)methoxy]-5′-(pyrazin-2-yl)tetrahydro-3′H-spiro[cyclobutane-1,2′-pyrrolo[2,1-b][1,3]oxazol]-3′-one]: 0.015 µM; `N#Cc1ccc(COC2CC3(C2)O[C@@H]2CC[C@@H](c4cnccn4)N2C3=O)cc1` (single isomer, unassigned) [Example 22.7, 4-({[(5′S,7a′R)-3′-oxo-5′-(pyrazin-2-yl)tetrahydro-3′H-spiro[cyclobutane-1,2′-pyrrolo[2,1-b][1,3]oxazol]-3-yl]oxy}methyl)benzonitrile]: 0.029 µM.
With `O=C1N2[C@@H](CC[C@H]2c2cc(F)cc(F)c2)O[C@]12C[C@H](Oc1cc(-c3nn[nH]n3)ccn1)C2` [Example 10.3, (1r,3R,5′S,7a′R)-3-((4-(2H-tetrazol-5-yl)pyridin-2-yl)oxy)-5′-(3,5-difluorophenyl)tetrahydro-3′H-spiro[cyclobutane-1,2′-pyrrolo[2,1-b]oxazol]-3′-one], the EC50 came out at 0.011 µM.
In the case of `CC1(Oc2cc(C#N)ncn2)CC2(C1)O[C@@H]1CC[C@@H](c3cc(F)cc(F)c3)N1C2=O` (stereo partly drawn) [Example 5.1, 6-(((5′S,7a′R)-5′-(3,5-difluorophenyl)-3-methyl-3′-oxotetrahydro-3′H-spiro[cyclobutane-1,2′-pyrrolo[2,1-b]oxazol]-3-yl)oxy)pyrimidine-4-carbonitrile], the EC50 was found to be 0.057 µM.
`O=C1N2[C@@H](CC[C@H]2c2cncc(F)c2)OC12CCC(OCc1ccccc1)CC2` (single isomer, unassigned) [Example 2.1, ((1r or s),4R,5′S,7a′R)-4-(benzyloxy)-5′-(5-fluoropyridin-3-yl)tetrahydro-3′H-spiro[cyclohexane-1,2′-pyrrolo[2,1-b]oxazol]-3′-one]: the EC50 came to 1.13 µM.
In the case of `Cn1ccc([C@@H]2CC[C@H]3O[C@]4(C[C@@H](Oc5cccc(C#N)c5)C4)C(=O)N32)n1` [Example 19.6, 3-{[(1s,3S,5′S,7a′R)-5′-(1-methyl-1H-pyrazol-3-yl)-3′-oxotetrahydro-3′H-spiro[cyclobutane-1,2′-pyrrolo[2,1-b][1,3]oxazol]-3-yl]oxy}benzonitrile] it was 0.203 µM.
With `O=C1N2C(CC[C@H]2c2cnccn2)OC12CC(OCc1ccc(OC3CCOCC3)nc1)C2` (stereo partly drawn) [Example 18.106, (5′S)-3-({6-[(oxan-4-yl)oxy]pyridin-3-yl}methoxy)-5′-(pyrazin-2-yl)tetrahydro-3′H-spiro[cyclobutane-1,2′-pyrrolo[2,1-b][1,3]oxazol]-3′-one], the EC50 came to 0.569 µM.
Turning to `CC(OC1CC2(C1)O[C@@H]1CC[C@@H](c3cc(F)cc(F)c3)N1C2=O)c1ccccc1` (single isomer, unassigned) [Example 15.1, ((1S or R),3R,5′S,7a′R)-5′-(3,5-difluorophenyl)-3-((S or R)-1-phenylethoxy)tetrahydro-3′H-spiro[cyclobutane-1,2′-pyrrolo[2,1-b]oxazol]-3′-one], the EC50 worked out at 0.284 µM.
As for `Cc1nc2c(OC3CC4(C3)O[C@@H]3CC[C@@H](c5cc(F)cc(F)c5)N3C4=O)ncnc2s1` (stereo partly drawn) [Example 9.7, (5′S,7a′R)-5′-(3,5-difluorophenyl)-3-[(2-methyl[1,3]thiazolo[5,4-d]pyrimidin-7-yl)oxy]tetrahydro-3′H-spiro[cyclobutane-1,2′-pyrrolo[2,1-b][1,3]oxazol]-3′-one], the EC50 amounted to 0.201 µM.
For `O=C1N2[C@@H](CC[C@H]2c2cc(F)cc(F)c2)O[C@]12C[C@H](Oc1cc(-n3cccn3)ncn1)C2` [Example 9.6, (5′S,7a′R)-5′-(3,5-difluorophenyl)-3-{[6-(1H-pyrazol-1-yl)pyrimidin-4-yl]oxy}tetrahydro-3′H-spiro[cyclobutane-1,2′-pyrrolo[2,1-b][1,3]oxazol]-3′-one], the EC50 is 0.012 µM.
Turning to `Cc1nnc(-c2ccc(COC3CC4(C3)O[C@@H]3CC[C@@H](c5cnccn5)N3C4=O)cc2)o1` (stereo partly drawn) [Example 22.9, (5′S,7a′R)-3-{[4-(5-methyl-1,3,4-oxadiazol-2-yl)phenyl]methoxy}-5′-(pyrazin-2-yl)tetrahydro-3′H-spiro[cyclobutane-1,2′-pyrrolo[2,1-b][1,3]oxazol]-3′-one], the EC50 is 0.037 µM.
Turning to `O=C1N2C(CC[C@H]2c2cnccn2)OC12CC(OCc1cnc(N3CCOCC3)nc1)C2` (stereo partly drawn) [Example 18.24, (5′S)-3-{[2-(morpholin-4-yl)pyrimidin-5-yl]methoxy}-5′-(pyrazin-2-yl)tetrahydro-3′H-spiro[cyclobutane-1,2′-pyrrolo[2,1-b][1,3]oxazol]-3′-one], the EC50 worked out at 0.31 µM.
Regarding `N#Cc1cc(F)cc(OC2CC3(C2)O[C@@H]2CC[C@@H](c4cnccn4)N2C3=O)c1` (stereo partly drawn) [Example 19.4, 3-fluoro-5-{[(5′S,7a′R)-3′-oxo-5′-(pyrazin-2-yl)tetrahydro-3′H-spiro[cyclobutane-1,2′-pyrrolo[2,1-b][1,3]oxazol]-3-yl]oxy}benzonitrile], the EC50 was 0.033 µM.
As for `O=C1N2C(CC[C@H]2c2cnccn2)OC12CC(OCc1ccc3nc(C4CC4)cn3c1)C2` (stereo partly drawn) [Example 18.73, (5′S)-3-[(2-cyclopropylimidazo[1,2-a]pyridin-6-yl)methoxy]-5′-(pyrazin-2-yl)tetrahydro-3′H-spiro[cyclobutane-1,2′-pyrrolo[2,1-b][1,3]oxazol]-3′-one], the EC50 stood at 0.111 µM.
In the case of `COCCOc1ccc(COC2CC3(C2)OC2CC[C@@H](c4cnccn4)N2C3=O)cc1` (stereo partly drawn) [Example 18.99, (5′S)-3-{[4-(2-methoxyethoxy)phenyl]methoxy}-5′-(pyrazin-2-yl)tetrahydro-3′H-spiro[cyclobutane-1,2′-pyrrolo[2,1-b][1,3]oxazol]-3′-one] it was 0.205 µM; in that of `N#Cc1ccoc1COC1CC2(C1)OC1CC[C@@H](c3cnccn3)N1C2=O` (stereo partly drawn) [Example 18.55, 2-({[(5′S)-3′-oxo-5′-(pyrazin-2-yl)tetrahydro-3′H-spiro[cyclobutane-1,2′-pyrrolo[2,1-b][1,3]oxazol]-3-yl]oxy}methyl)furan-3-carbonitrile], 0.126 µM.
Consider `O=C1N2[C@@H](CC[C@H]2c2cnccn2)OC12CC(OCC1CCCC1)C2` (single isomer, unassigned) [Example 23.3, (5′S,7a′R)-3-(cyclopentylmethoxy)-5′-(pyrazin-2-yl)tetrahydro-3′H-spiro[cyclobutane-1,2′-pyrrolo[2,1-b]oxazol]-3′-one], for which the EC50 turned out to be 0.316 µM.
For the compound `CC(OC1CC2(C1)OC1CCC(c3cc(F)cc(F)c3)N1C2=O)c1ccccc1` (single isomer, unassigned) [Example 15.3, ((1S or R),3R,5′S,7a′R)-5′-(3,5-difluorophenyl)-3-((R or S)-1-phenylethoxy)tetrahydro-3′H-spiro[cyclobutane-1,2′-pyrrolo[2,1-b]oxazol]-3′-one], the EC50 is 0.026 µM.
Turning to `O=C1N2C(CC[C@H]2c2cnccn2)OC12CC(OCc1cc(Cl)ccc1-c1cnco1)C2` (stereo partly drawn) [Example 18.82, (5′S)-3-{[5-chloro-2-(1,3-oxazol-5-yl)phenyl]methoxy}-5′-(pyrazin-2-yl)tetrahydro-3′H-spiro[cyclobutane-1,2′-pyrrolo[2,1-b][1,3]oxazol]-3′-one], the EC50 came to 0.099 µM.
As to `O=C1N2[C@@H](CC[C@H]2c2cnccn2)O[C@]12C[C@H](Oc1ncnn3cccc13)C2` [Example 9.46, (1r,3R,5′S,7a′R)-5′-(pyrazin-2-yl)-3-(pyrrolo[2,1-f][1,2,4]triazin-4-yloxy)tetrahydro-3′H-spiro[cyclobutane-1,2′-pyrrolo[2,1-b]oxazol]-3′-one], the EC50 was found to be 0.015 µM.
In the case of `N#Cc1cc(O[C@H]2C[C@]3(C2)O[C@@H]2CC[C@@H](c4ccccc4F)N2C3=O)ncn1` [Example 9.43, 6-{[(5′S,7a′R)-5′-(2-fluorophenyl)-3′-oxotetrahydro-3′H-spiro[cyclobutane-1,2′-pyrrolo[2,1-b][1,3]oxazol]-3-yl]oxy}pyrimidine-4-carbonitrile] it was 0.353 µM; in that of `O=C1N2C(CC[C@H]2c2cnccn2)OC12CC(OCc1ccc(C(F)F)cn1)C2` (stereo partly drawn) [Example 18.63, (5′S)-3-{[5-(difluoromethyl)pyridin-2-yl]methoxy}-5′-(pyrazin-2-yl)tetrahydro-3′H-spiro[cyclobutane-1,2′-pyrrolo[2,1-b][1,3]oxazol]-3′-one], 0.354 µM.
